Laboratory results reported in US20230414774A1, “ANTI-CLDN18.2 ANTIBODY, DRUG CONJUGATE, AND PREPARATION METHOD THEREFOR AND USE THEREOF” (CSPC MEGALITH BIOPHARMACEUTICAL CO., LTD., priority 2020, published 2023).

Key:
[1] = system: human gastric cancer NUGC-4-18.2 xenografts; assay: In vivo efficacy, xenograft, cisplatin as reference; set-up: species or system nude mice; conditions: i.v., 6 mg/kg qw×3, day 20
Method: 2) In this experiment, nude mice with human gastric cancer NUGC-4-18.2 xenografts were used. When the tumor volume reached about 120 mm^3 (day 6 after inoculation), 64 animals with bulky xenografts were selected and divided into eight groups (on day 0) with tumor volume balancing among groups. Eight animals in individual groups were intravenously administered 0.9% sodium chloride injection (0.9% INJ NS, vehicle control group), SYJS001-ADC at 1, 2 and 4 mg/kg (qw×3), SYJS001-ADC at 4 and 8 mg/kg (single dose), SYJS001-mAb at 4 mg/kg (qw×3) and Cisplatin at 6 mg/kg (qw×3, once a week for 3 weeks), respectively. Tumor diameters were measured twice a week. Mice were weighed, and data were recorded. Tumor growth was dynamically observed by measuring tumor diameters at different times after dosing. At the end of the experiment on day 20, the mice were asphyxiated with carbon dioxide, and the tumors were peeled and weighed.

[2] = system: human pancreatic cancer Bxpc3-18.2 xenografts; assay: In vivo efficacy, xenograft, gemcitabine as reference; set-up: species or system nude mice; conditions: i.v., 50 mg/kg biw×4, day 28
Method: 1) In this experiment, nude mice with human pancreatic cancer Bxpc3-18.2 xenografts were used. When the tumor volume reached about 100 mm^3 (day 39 after inoculation), 48 animals with bulky xenografts were selected and divided into six groups (on day 0) with tumor volume balancing among groups. Eight animals in individual groups were intravenously administered 0.9% sodium chloride injection (0.9% INJ NS, vehicle control group), SYJS001-ADC at 2, 4 and 8 mg/kg (single dose), SYJS001-mAb (SYJS001 nude antibody) at 8 mg/kg (single dose) and Gemcitabine (GEM) at 50 mg/kg (biw×4, twice a week for 4 weeks), respectively. Tumor diameters were measured twice a week. Mice were weighed, and data were recorded. Tumor growth was dynamically observed by measuring tumor diameters at different times after dosing. At the end of the experiment on day 28, the mice were asphyxiated with carbon dioxide, and the tumors were peeled and weighed.

[3] = target: human CLDN18.2 on cells (human) (UniProt P56856); assay: flow cytometry on BxPC3-CLDN18.2 cells, ED50 comparison

## N.N.[Cl][Pt][Cl] [Cisplatin]
[1]
  tumor weight suppression rate: 66.5%

## Nc1ccn([C@@H]2O[C@H](CO)[C@@H](O)C2(F)F)c(=O)n1 [Gemcitabine]
[2]
  tumor weight suppression rate: 51.0%

B1: SYJS001 monoclonal antibody (antibody, human IgG1, kappa, V domains shown)
VH: EVQLSESGGALVQPGESLRLSCAASGFTFSSYAMTWVRQAPGKGLEWVSSLSGSGRSTYYAASIKGRFTISRDNSKNTLYLQMSSLRAEDTAIYYCAKSLSYYHYYFDYWGQGTLVTVSS
VL: DIQLTQSPSFLSASVGDRVPITCRASQDISNYLAWYQQKPGKAPKLLIYSASTLQSGVPSRFSGSGSGTEFTLTISSLQPEDFASYHCQQVKTYPLTFGGGTKVEIKR
[3]
  fold affinity against IMAB362: 2 fold
